Data on 15 compounds can be found in PubChem BioAssay (NCI).

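Exposure lasted 48 hours, with cells grown in 96-well plates and compounds tested at five concentrations. GI50 = concentration required for 50% inhibition of growth. TGI: concentration producing complete growth inhibition.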

Test systems include CAKI-1 renal; COLO 205 colon; HCT-15 colon; MDA-MB-231 breast; MDA-N; PC-3 prostate; SF-295 CNS; SK-MEL-5 melanoma; SNB-75 CNS; T-47D breast.
Holding throughout (experiment): NCI-60 cell line screen, 48 h

As to `Nc1ccccc1.[C-]#[O+].[C-]#[O+].[C-]#[O+].[C-]#[O+].[C-]#[O+].[Cr]`, the GI50 is 2.04 µM in the test with CAKI-1 renal; 3.52 µM in the test on COLO 205 colon; 4.99 µM in the test on HCT-15 colon; 5.79 µM in the test on MDA-MB-231 breast; 3.53 µM in the test on MDA-N; 5.87 µM in the test with PC-3 prostate. The GI50 with SF-295 CNS is more than 10 µM; in the test with SK-MEL-5 melanoma it was 1.53 µM; in the test with SNB-75 CNS it was 4.05 µM; with T-47D breast it was 2.62 µM. The TGI in the test with CAKI-1 renal is 8.3 µM; with COLO 205 colon, more than 10 µM; in the test with HCT-15 colon it was more than 10 µM; with MDA-MB-231 breast, more than 10 µM; with MDA-N, more than 10 µM; in the test with PC-3 prostate, more than 10 µM. Also, the TGI with SF-295 CNS is more than 10 µM; in the test with SK-MEL-5 melanoma it was 3.34 µM; with SNB-75 CNS it was more than 10 µM; in the test with T-47D breast it was more than 10 µM.

As to `COC(=O)/C=C\C(C#N)(C#N)N=Cc1ccccc1`, the TGI with CAKI-1 renal is 7.31 µM; with COLO 205 colon, 2.97 µM; in the test with HCT-15 colon, 8.79 µM; with MDA-MB-231 breast, 30.9 µM; in the test with MDA-N it was 15.1 µM; in the test with PC-3 prostate, 13.1 µM. For the same compound, the TGI in the test with SF-295 CNS was found to be 36.1 µM; in the test on SK-MEL-5 melanoma, 28 µM; in the test on SNB-75 CNS it was 14.5 µM; in the test with T-47D breast it was 3.88 µM.

Regarding `COc1cc(O)c2c(=O)c3c(C)cccc3n(C)c2c1`, the TGI in the test on CAKI-1 renal, with COLO 205 colon, in the test with HCT-15 colon, in the test on MDA-MB-231 breast, with MDA-N and in the test on PC-3 prostate was more than 10 µM in each case. In addition, the TGI in the test on SF-295 CNS, in the test on SK-MEL-5 melanoma, in the test with SNB-75 CNS and in the test with T-47D breast was more than 10 µM each time.

In the case of `COc1cc2oc(=O)cc(C)c2cc1O`, the TGI in the test on CAKI-1 renal, in the test with COLO 205 colon, in the test with HCT-15 colon, in the test with MDA-MB-231 breast, with MDA-N and in the test with PC-3 prostate was more than 100 µM each time. In addition, the TGI in the test with SF-295 CNS, with SK-MEL-5 melanoma, in the test on SNB-75 CNS and with T-47D breast was more than 100 µM in each case.

Consider `COC(OC)C1OCC(n2cc(F)c(=O)[nH]c2=O)C1O` (stereo not given), for which the TGI in the test with CAKI-1 renal, in the test on COLO 205 colon, in the test with HCT-15 colon, in the test on MDA-MB-231 breast, in the test with MDA-N and in the test on PC-3 prostate was more than 100 µM in each case. Besides, the TGI in the test on SF-295 CNS, in the test with SK-MEL-5 melanoma, in the test with SNB-75 CNS and in the test on T-47D breast was more than 100 µM each time.

As to `CCCCCCCCCCCCc1ccc(S(=O)(=O)O)cc1.[Zn+2]`, the TGI with CAKI-1 renal, with COLO 205 colon, in the test with HCT-15 colon, in the test on MDA-MB-231 breast, in the test with MDA-N and in the test on PC-3 prostate was more than 100 µM in each case. In addition, the TGI with SF-295 CNS, in the test with SK-MEL-5 melanoma, in the test on SNB-75 CNS and in the test on T-47D breast was more than 100 µM throughout.

On to `CSc1cc(-c2ccccn2)nc(-c2ccccn2)c1`, for which the TGI with CAKI-1 renal came to 1.81 µM; in the test on COLO 205 colon, 7.29 µM; in the test with HCT-15 colon, 4.11 µM; in the test with MDA-MB-231 breast, 18.1 µM; in the test with MDA-N it was 16 µM; with PC-3 prostate, 17.9 µM. For the same compound, the TGI came out at 11.5 µM in the test with SF-295 CNS, 4.07 µM in the test on SK-MEL-5 melanoma, 13.6 µM in the test with SNB-75 CNS and 17.6 µM with T-47D breast.

Turning to `O=C1c2ccccc2C(=O)c2sc(Nc3ccccc3C(F)(F)F)nc21`, the TGI with CAKI-1 renal was 21.1 µM; in the test with COLO 205 colon, 27.8 µM; in the test on HCT-15 colon, more than 100 µM; in the test with MDA-MB-231 breast, 16.1 µM; in the test with MDA-N, 30.8 µM; in the test with PC-3 prostate, 26.1 µM. Further, the TGI is 32.2 µM in the test with SF-295 CNS, 22.7 µM with SK-MEL-5 melanoma, 35.8 µM in the test with SNB-75 CNS and 44.5 µM in the test on T-47D breast.

Take `CCOC(=O)c1nc2ccccc2nc1Oc1ccc(C(=O)OC)cc1`: the TGI in the test on CAKI-1 renal, in the test with COLO 205 colon, with HCT-15 colon, with MDA-MB-231 breast, in the test on MDA-N and in the test on PC-3 prostate was more than 100 µM each time. Also, the TGI with SF-295 CNS, in the test on SK-MEL-5 melanoma, with SNB-75 CNS and in the test with T-47D breast was more than 100 µM in each case.

`c1ccc(CN[C@]23C4C5CC6C7C5C2C7[C@@](NCc2ccccc2)(C64)N3Cc2ccccc2)cc1` (stereo not given in full): the TGI in the test with CAKI-1 renal, with COLO 205 colon, with HCT-15 colon, in the test on MDA-MB-231 breast, in the test on MDA-N and in the test on PC-3 prostate was more than 100 µM in each case. Also, the TGI with SF-295 CNS, with SK-MEL-5 melanoma, with SNB-75 CNS and in the test on T-47D breast was more than 100 µM in each case.

Take `CCCCCCNC(=O)CCC(NC(=O)c1ccc(N(C)Cc2cnc3nc(N)nc(N)c3n2)cc1)C(=O)NCCCCCC` (stereo not given): the TGI in the test on CAKI-1 renal, in the test with COLO 205 colon, with HCT-15 colon, with MDA-MB-231 breast, with MDA-N and in the test with PC-3 prostate was more than 100 µM throughout. For the same compound, the TGI was 30.3 µM with SF-295 CNS, more than 100 µM with SK-MEL-5 melanoma, more than 100 µM in the test on SNB-75 CNS and more than 100 µM in the test with T-47D breast.

With `O=c1sc2c(s1)-c1sc(=O)sc1SS2`, the TGI is more than 100 µM in the test with CAKI-1 renal; more than 65 µM in the test on COLO 205 colon; more than 31.6 µM in the test on HCT-15 colon; more than 100 µM with MDA-MB-231 breast; more than 100 µM in the test with MDA-N; more than 100 µM in the test with PC-3 prostate. Besides, the TGI with SF-295 CNS, in the test with SK-MEL-5 melanoma, with SNB-75 CNS and with T-47D breast was more than 100 µM throughout.

Take `COC(=O)C1=C(OC(=O)/C=C/c2ccccc2)C(C(=O)OC)[C@@]2(O)[C@@H](C(=O)OC)[C@H](C)C[C@@H]1[C@@H]2C(=O)OC` (stereo not given in full): the TGI in the test with CAKI-1 renal was 32.6 µM; with COLO 205 colon, 74.8 µM; in the test on HCT-15 colon, 37.6 µM; in the test on MDA-MB-231 breast, 43.9 µM; in the test on MDA-N, more than 100 µM; with PC-3 prostate, more than 100 µM. Moreover, the TGI in the test on SF-295 CNS is 79.9 µM; in the test on SK-MEL-5 melanoma, 87.9 µM; with SNB-75 CNS it was 73.1 µM; with T-47D breast, 84.4 µM.

For `C=C1c2nc3ccccc3n2C=C(c2ccc(C)cc2)N1c1ccc(C)cc1`, the TGI in the test on CAKI-1 renal is more than 100 µM; with COLO 205 colon, more than 89.3 µM; in the test with HCT-15 colon, more than 80.6 µM; in the test on MDA-MB-231 breast it was more than 100 µM; in the test on MDA-N, more than 92.3 µM; with PC-3 prostate, more than 100 µM. The TGI in the test on SF-295 CNS is more than 100 µM; with SK-MEL-5 melanoma, more than 69.8 µM; in the test with SNB-75 CNS, more than 100 µM; in the test on T-47D breast, more than 100 µM.

As for `O=C(CCCCCC(=O)N1CC(CCl)c2ccc([N+](=O)[O-])cc21)N1CC(CCl)c2ccc([N+](=O)[O-])cc21` (stereo not given), the TGI in the test on CAKI-1 renal, with COLO 205 colon, in the test with HCT-15 colon, in the test with MDA-MB-231 breast, in the test on MDA-N and with PC-3 prostate was more than 100 µM each time. Besides, the TGI in the test on SF-295 CNS, with SK-MEL-5 melanoma, with SNB-75 CNS and in the test with T-47D breast was more than 100 µM each time.
